The text below walks through data of patent publication US12435059B2, “AMP-activated protein kinase inhibitors and methods of making and using the same” (The Regents of the University of Colorado, priority 2019, dated 2025).

One experiment has as its system cellular AMPK. Kind of experiment: p-ACC(Ser79) ELISA in K562 cell lysates (glucose-free media, 2-DG). The format is cell-based. As to conditions: for p-ACC level reduction across concentration range compared with sunitinib: K562, dose response, FIG. 2B; for Relative p-ACC(Ser79) level: K562, glucose-free media, 2-DG 12 mM, compound 5 μM single dose, relative to DMSO control. Here is the method: FIGS. 2A and 2B are a series of graphs showing the effects of compounds of the present disclosure on cellular levels of p-ACC(Ser79) in K562 cells. FIG. 2A Quantitative ELISA determination of p-ACC(Ser79) levels in K562 lysates (1.0 mg mL^−1 total protein) following growth in glucose-free media for 24 h, 2-DG (12 mM) treatment for 1 h followed by treatment with inhibitor compounds at 5.0 μM for 2 h. Relative p-ACC levels are reported as a percentage of levels resultant from DMSO control treatment. […] Cells were collected, washed with PBS and lysed on ice in lysis buffer containing 1% Triton X (Cell Signaling). Lysates were someated (1×5 seconds) and centrifuged for 10 minutes at 10,000 rpm and 4° C., and the protein concentration in supernatants was determined by Lowry assay. Lysates were diluted with ELISA PathScan® sample diluent to a final volume of 100 μL and protein concentration of 1.0 mg/ml prior to use. The concentration of p-ACC (Ser79) was determined using an enzyme-linked immunosorbent assay according to recommended protocol (Cell Signaling, ELISA PathScan® phospho-Acetyl-CoA Carboxylase (Ser79)) and expressed as a relative percentage of the DMSO control.
The AMPK substrate ACC is used as a biomarker for the relative activity of AMPK, and the levels of p-ACC(Ser79) were measured by ELISA in the absence or presence of the compounds to determine the compounds' effects on cellular AMPK activity. The presence of total AMPK, p-AMPK, total ACC, and p-ACC was measured by Western blot in a panel of leukemic cell lines grown in glucoe competent or glucose-free media. […] The cell lysates from K562 cells grown in glucose-free media in the presence 2-DG and treated with compounds of the present disclosure were analyzed by the p-ACC(Ser79) ELISA to determine the effect of the compounds on cellular AMPK activity.

The target in experiment [1] is T1, AMPKα1 (Homo sapiens (Human), UniProt Q13131). Kind of experiment: LANCE Eu TR-FRET recombinant kinase assay, AMPK(α1). It counts as biochemical. On the procedure:
(§1) Assays were performed at 25° C. in a reaction mixture consisting of 2.5 μL serially diluted inhibitor solution, 2.5 μL kinase, 2.5 μL ATP and 2.5 μL substrate. Reagents were incubated for 1 hr before the reaction was halted through the addition of EDTA (10 mM) after which Eu anti-phospho-CREB (Ser133) antibody (PerkinElmer) was added at a final concentration of 2 nM for 1 hr. […] (n=3)).
Target sequence in this assay (Q13131 whole entry, looked up): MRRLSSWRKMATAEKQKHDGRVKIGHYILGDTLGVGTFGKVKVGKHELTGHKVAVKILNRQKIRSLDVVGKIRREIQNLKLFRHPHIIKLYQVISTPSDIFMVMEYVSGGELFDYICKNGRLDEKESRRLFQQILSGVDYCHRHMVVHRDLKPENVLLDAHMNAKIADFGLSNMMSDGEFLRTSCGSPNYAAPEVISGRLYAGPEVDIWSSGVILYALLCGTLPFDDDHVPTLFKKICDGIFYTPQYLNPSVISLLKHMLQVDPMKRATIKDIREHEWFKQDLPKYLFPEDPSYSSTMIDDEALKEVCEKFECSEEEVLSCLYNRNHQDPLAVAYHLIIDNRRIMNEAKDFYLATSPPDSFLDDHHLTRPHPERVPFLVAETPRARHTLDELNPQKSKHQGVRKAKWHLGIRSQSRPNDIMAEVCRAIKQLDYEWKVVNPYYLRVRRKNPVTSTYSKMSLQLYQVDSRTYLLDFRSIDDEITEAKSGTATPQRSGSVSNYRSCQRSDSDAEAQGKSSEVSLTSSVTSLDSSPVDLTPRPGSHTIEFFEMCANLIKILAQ
Target sequence in this assay (Q9Y478 whole entry partner, looked up): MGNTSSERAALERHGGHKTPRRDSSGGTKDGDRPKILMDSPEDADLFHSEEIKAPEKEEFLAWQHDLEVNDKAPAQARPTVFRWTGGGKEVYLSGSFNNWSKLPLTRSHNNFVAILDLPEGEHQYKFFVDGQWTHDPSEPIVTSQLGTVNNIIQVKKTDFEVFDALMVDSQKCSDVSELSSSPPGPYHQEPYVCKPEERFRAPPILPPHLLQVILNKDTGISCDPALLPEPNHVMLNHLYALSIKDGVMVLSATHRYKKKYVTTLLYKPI
Target sequence in this assay (P54619 whole entry partner, looked up): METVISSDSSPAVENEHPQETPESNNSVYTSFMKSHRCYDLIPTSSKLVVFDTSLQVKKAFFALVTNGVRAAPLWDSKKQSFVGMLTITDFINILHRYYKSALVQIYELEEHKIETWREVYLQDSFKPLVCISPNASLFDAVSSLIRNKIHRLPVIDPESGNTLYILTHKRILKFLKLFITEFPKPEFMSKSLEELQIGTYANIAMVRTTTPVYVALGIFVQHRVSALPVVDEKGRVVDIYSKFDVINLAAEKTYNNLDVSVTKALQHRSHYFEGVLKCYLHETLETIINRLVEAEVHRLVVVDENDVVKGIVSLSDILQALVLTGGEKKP

The target of a further experiment is AMPK(α2) (Homo sapiens (Human), UniProt P54646). Kind of experiment: LANCE Eu TR-FRET recombinant kinase assay, AMPK(α2). The format is biochemical. On the procedure: as §1
(In general: TR-FRET usually uses a lanthanide donor and a delayed reading to cut background.)

Experiment [2] concerns K562 cells. Kind of experiment: MTS cell viability assay in K562 cells. As to conditions: Homo sapiens; K562, RPMI-1640; Table 2 head prints 24 h, method and FIG. 3A legend 72 hours. The format is cell-based. On the procedure: (§2) The cells were incubated with inhibitors for 24 hours, before the plates were equilibrated to room temperature and 100 μL CellTiter-Glo reagent was added. […] Luminescent signal was plotted against the inhibitor log-dose and evaluated by a non-linear regression to determine half-maximal effect concentration (EC50) values, where possible.
An MTS assay was utilized to assess the effect of inhibitors on K562 viability.
In general terms: Tetrazolium assays rely on reduction of a dye to a coloured formazan, in cell work by metabolically active cells.

The test system of experiment [3] is K562 cells. Put plainly: CellTiter-Glo cell viability assay in K562 cells (glucose-free media). The format is cell-based. Particulars: Homo sapiens, read-out: EC50 CellTiter Glo 24 h. Here is the method: as §2
(§3) In order to increase the reliance of the cells on AMPK function, assays were needed that could be performed under glucose-free conditions. Therefore in order to elucidate the mechanism of action of the AMPK inhibitors, a CellTiter-Glo cell viability assay (FIG. 3B), which provide a readout proportional to ATP concentration, and thus, cellular viability, as well as a CellTox green cellular toxicity assay (FIG. 3C and FIG. 3D), which contain a dye that fluoresces upon DNA-binding in cells with impraied membrane integrity due to cytotoxicity were performed in K562 cells grown in glucose-free media. The results are summarized in Table 2 (values are the mean±S.D. (n=3)).
In general terms: In ATP-based viability assays light output follows the ATP content of the culture.

The subject of experiment [4] is K562 cells. Put plainly: CellTox green cellular toxicity assay in K562 cells (glucose-free media). As to conditions: for EC50: Homo sapiens. It counts as cell-based.
From the text: Fluorescence was plotted against inhibitor log-dose and evaluated by a non-linear regression to determine half-maximal effect concentration (EC50) values, where possible.
as §3

For a further experiment, the target named is KDR (Homo sapiens (Human), UniProt P35968). Put plainly: LanthaScreen Eu TR-FRET KDR competitive binding assay. As to conditions: read-out: IC50 (nM) KDR; mean±S.D. (n=3); competitive binding.
The target of experiment [5] is T1, AMPKα1. Particulars: purified AMPK protein; read-out: AMPKα1 IC50, 32P radioactivity assay; cited from earlier work.
Target sequence in this assay (Q13131 whole entry): as the sequence (Q13131 whole entry, looked up) above
Target sequence in this assay (Q9Y478 whole entry partner): as the sequence (Q9Y478 whole entry partner, looked up) above
Target sequence in this assay (P54619 whole entry partner): as the sequence (P54619 whole entry partner, looked up) above
A further experiment deals with 468 kinases (Homo sapiens, UniProt Q14004). Kind of experiment: biochemical. Particulars: read-out: % Inhibition @ 100 nM, CDC2L5. It counts as binding.
A further experiment has as its target BTK (Homo sapiens (Human), UniProt Q06187). Put plainly: Kinome binding analysis at 100 nM, BTK.
[6] abbreviates: read-out: EC50 CellTox Green 48 h, 48 h.

Where two headings read alike, the source gives them in different places.

Chain of AMPK(α2) (P54646 whole entry, looked up): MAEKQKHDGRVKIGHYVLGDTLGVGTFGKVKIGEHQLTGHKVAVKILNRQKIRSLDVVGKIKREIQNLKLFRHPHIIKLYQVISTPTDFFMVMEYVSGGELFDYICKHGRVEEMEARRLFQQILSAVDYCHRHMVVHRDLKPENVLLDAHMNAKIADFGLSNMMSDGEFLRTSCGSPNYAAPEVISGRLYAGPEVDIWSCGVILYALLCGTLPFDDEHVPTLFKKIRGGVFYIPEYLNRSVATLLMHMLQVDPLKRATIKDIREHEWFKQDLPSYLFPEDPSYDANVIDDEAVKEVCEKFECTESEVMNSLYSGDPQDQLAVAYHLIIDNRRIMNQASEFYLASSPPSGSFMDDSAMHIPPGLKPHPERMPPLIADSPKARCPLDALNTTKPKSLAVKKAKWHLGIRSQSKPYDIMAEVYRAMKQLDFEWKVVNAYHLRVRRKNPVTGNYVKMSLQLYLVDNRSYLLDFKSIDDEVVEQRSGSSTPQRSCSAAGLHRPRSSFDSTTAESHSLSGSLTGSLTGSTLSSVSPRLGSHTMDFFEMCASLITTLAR
Chain of AMPK(α2) (Q9Y478 whole entry partner, looked up): as the sequence (Q9Y478 whole entry partner, looked up) above
Chain of AMPK(α2) (P54619 whole entry partner, looked up): as the sequence (P54619 whole entry partner, looked up) above
Chain of BTK (Q06187 whole entry): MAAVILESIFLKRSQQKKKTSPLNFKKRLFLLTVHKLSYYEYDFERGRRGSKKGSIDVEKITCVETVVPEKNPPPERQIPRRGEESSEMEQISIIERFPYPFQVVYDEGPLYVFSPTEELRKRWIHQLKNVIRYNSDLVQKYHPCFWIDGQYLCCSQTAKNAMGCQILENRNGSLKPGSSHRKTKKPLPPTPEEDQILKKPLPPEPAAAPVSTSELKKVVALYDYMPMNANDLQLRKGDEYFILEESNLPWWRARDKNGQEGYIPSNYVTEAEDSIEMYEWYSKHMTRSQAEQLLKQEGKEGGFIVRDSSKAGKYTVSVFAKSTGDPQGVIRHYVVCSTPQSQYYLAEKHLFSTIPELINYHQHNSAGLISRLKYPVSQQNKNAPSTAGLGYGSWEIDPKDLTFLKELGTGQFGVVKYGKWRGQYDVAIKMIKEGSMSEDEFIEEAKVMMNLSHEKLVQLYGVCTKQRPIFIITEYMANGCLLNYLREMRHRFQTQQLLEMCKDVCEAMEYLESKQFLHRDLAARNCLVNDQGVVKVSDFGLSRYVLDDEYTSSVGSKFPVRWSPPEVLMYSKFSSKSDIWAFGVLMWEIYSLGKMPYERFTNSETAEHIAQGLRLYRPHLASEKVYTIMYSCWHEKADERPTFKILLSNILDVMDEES
Chain of KDR (P35968 20-1356): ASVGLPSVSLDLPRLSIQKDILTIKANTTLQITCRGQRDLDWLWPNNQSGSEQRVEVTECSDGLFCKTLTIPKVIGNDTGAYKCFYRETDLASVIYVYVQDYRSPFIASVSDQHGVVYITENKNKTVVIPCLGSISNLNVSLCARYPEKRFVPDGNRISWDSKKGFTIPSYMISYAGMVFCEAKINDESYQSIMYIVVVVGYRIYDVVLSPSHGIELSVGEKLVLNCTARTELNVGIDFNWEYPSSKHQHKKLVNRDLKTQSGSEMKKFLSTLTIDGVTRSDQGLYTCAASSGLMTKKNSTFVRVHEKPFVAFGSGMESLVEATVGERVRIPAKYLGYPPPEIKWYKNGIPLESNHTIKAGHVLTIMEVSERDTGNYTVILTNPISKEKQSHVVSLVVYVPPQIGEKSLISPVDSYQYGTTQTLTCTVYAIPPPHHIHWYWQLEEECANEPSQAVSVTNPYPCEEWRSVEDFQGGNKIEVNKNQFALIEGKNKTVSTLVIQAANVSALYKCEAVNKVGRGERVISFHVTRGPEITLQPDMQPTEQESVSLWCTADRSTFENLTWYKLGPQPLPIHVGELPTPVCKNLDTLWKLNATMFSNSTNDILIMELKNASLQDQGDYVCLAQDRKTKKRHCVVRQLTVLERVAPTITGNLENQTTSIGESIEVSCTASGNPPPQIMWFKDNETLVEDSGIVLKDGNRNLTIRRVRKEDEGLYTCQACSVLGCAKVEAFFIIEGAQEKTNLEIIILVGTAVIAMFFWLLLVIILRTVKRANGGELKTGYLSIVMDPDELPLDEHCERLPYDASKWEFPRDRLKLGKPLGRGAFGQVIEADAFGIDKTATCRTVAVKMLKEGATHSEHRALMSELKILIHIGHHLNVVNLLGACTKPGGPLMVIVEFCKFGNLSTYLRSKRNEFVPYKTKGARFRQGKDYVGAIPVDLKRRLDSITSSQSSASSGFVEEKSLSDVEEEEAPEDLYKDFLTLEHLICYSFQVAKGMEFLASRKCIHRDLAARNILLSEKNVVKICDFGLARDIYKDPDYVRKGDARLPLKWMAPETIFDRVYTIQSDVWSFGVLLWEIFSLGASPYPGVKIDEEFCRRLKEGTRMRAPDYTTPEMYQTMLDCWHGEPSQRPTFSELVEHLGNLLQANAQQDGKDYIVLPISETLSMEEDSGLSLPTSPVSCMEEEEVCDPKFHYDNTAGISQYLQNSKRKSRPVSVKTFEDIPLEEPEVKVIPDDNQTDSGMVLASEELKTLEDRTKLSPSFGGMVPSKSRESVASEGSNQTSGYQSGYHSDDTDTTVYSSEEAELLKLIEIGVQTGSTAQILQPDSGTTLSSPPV

For `CCN(CC)CCNC(=O)c1c(C)[nH]c(/C=C2\C(=O)Nc3ccc(CCO)cc32)c1C` [Compound 65], the “p-ACC level reduction across concentration range compared with sunitinib” value in the experiment on cellular AMPK was “improvements in cellular AMPK inhibition over sunitinib at all concentrations apart from 50 μM”.
For `CCN(CC)CCNC(=O)c1c(C)[nH]c(/C=C2\C(=O)Nc3ccc(CCC(N)=O)cc32)c1C` [Compound 67], the “p-ACC level reduction across concentration range compared with sunitinib” value in the experiment with cellular AMPK is “significant improvements in p-ACC level reduction with respect to sunitinib at both 3.125 mM and 12.5 mM”.
As to `CCN(CC)CCNC(=O)c1c(C)[nH]c(/C=C2\C(=O)N(C)c3ccc(F)cc32)c1C` [Compound No. 1, (Z)—N-(2-(Diethylamino)ethyl)-5-((5-fluoro-1-methyl-2-oxoindolin-3-ylidene)methyl)-2,4-dimethyl-1H-pyrrole-3-carboxamide], the “AMPK(α1) % inhibition at 20 μM” value at AMPKα1 [1] (at 20 μM) is given as 40%. For the same compound, the “AMPK(α2) % inhibition at 10 μM” value at AMPK(α2) (at 10 μM) was found to be 17%. For the same compound, the “Relative p-ACC(Ser79) level” value in the experiment with cellular AMPK is given as 97.1 % of control. The EC50 (as a rule, the concentration at which the effect is half-maximal) is 6.79 ± 0.15 µM in the experiment with K562 cells [2]; 11.8 ± 0.78 µM in the experiment on K562 cells [3]; 12.1 ± 0.91 µM in the experiment on K562 cells [4] (read-out: EC50 CellTox Green 24 h, 24 h); 6.91 ± 0.06 µM in the experiment on K562 cells [4] (setting [6]).
As to `CCN(CC)CCNC(=O)c1c(C)[nH]c(/C=C2\C(=O)Nc3ccc(CCC#N)cc32)c1C` [Compound No. 15, (Z)-5-((5-(2-cyanoethyl)-2-oxoindolin-3-ylidene)methyl)-N-(2-(diethylamino)ethyl)-2,4-dimethyl-1H-pyrrole-3-carboxamide], the IC50 (commonly the concentration needed to halve the response being measured) on AMPKα1 [1] (mean±S.D. (n=3), ATP 8 μM, read-out: IC50 (nM) AMPK(α1)) came to 164 ± 10 nM; on AMPK(α2) (mean±S.D. (n=3), ATP 20 μM), 32.4 ± 7.8 nM; at KDR, 1330 ± 140 nM. For the same compound, the “Relative p-ACC(Ser79) level” value in the experiment on cellular AMPK was 34.1 % of control. Besides, the EC50 in the experiment with K562 cells [2] turned out to be 14.8 ± 0.22 µM; in the experiment with K562 cells [3], 17.8 ± 0.78 µM; with K562 cells [4] (setting [6]), 13.6 ± 1.07 µM.
Turning to `CNC(=O)c1ccccc1Oc1nc(Nc2cc(OC)c(OC)c(OC)c2)ncc1Br` [SBI-0206965], on AMPKα1 [5], the IC50 is 0.4 µM.
As for `CCN(CC)CCNC(=O)c1c(C)[nH]c(/C=C2\C(=O)Nc3ccc(F)cc32)c1C` [Sunitinib, (Z)—N-(2-(Diethylamino)ethyl)-5-((5-fluoro-2-oxoindolin-3-ylidene)methyl)-2,4-dimethyl-1H-pyrrole-3-carboxamide, reference compound], the “CellTox Green 24 h % inhibition at 50 μM” value with K562 cells [4] (24 h, at 50 μM) came to 61% at 50 μM. The inhibition – broadly, how much of the control response was suppressed – at 0.1 µM at 468 kinases amounted to 49%; on BTK (read-out: Percentage inhibition at 100 nM, BTK), 91.3%. Further, the “BTK inhibition, in words” value at BTK (100 nM) is listed as “strongly inhibited”.
